10 molecules from patent US8686048B2, “Immunomodulator and anti-inflammatory compounds” (Rhizen Pharmaceuticals SA, priority 2010, dated 2014) can be followed below.

Each structure is given as a SMILES string.

The nature of data set [1]: Single dose oral hepatotoxicity assay. The following applies: serum, 24 hr after 100 mg/kg po single dose, mice. Type of data set: in vivo, BALB/cJ mice. Here is the method:
5. Single Dose Oral Hepatotoxicity Assay:
BALB/cJ (n=4 or 5/sex) mice aged 8 to 10 weeks, with weights ranging from 18 to 25 g were used. They were housed under conditions of controlled temperature and humidity and a 12-h light/dark cycle. They were given continuous access to bottled spring water and fed a standard chow at ad libitum. The mice were allowed to acclimate for 1 week before use. On the day of experiment mice were fasted overnight for 12 h and administered with test item formulation (100 mg/kg·b·wt/po) or vehicle (10 ml/kg·b·wt/po) by oral route and food was given 4 hr after test item administration. After 24 hr post administration blood samples were collected from orbital sinus of all the animals and serum was separated to assess the hepatotoxicity. Biochemical evaluation of liver function was determined by measuring serum enzyme activities of alanine aminotransferase (ALT) and aspartate aminotransferase (AST) using commercially available kits from Sigma (St. Louis, Mo.).

The target of the next data set is T1, h-DHODH (Homo sapiens, UniProt Q02127).
T1 construct: endogenous in cells; host or cells: U937 cells (membrane fraction, solubilised with 1% octyl glucoside)
T1 sequence (Q02127 whole entry): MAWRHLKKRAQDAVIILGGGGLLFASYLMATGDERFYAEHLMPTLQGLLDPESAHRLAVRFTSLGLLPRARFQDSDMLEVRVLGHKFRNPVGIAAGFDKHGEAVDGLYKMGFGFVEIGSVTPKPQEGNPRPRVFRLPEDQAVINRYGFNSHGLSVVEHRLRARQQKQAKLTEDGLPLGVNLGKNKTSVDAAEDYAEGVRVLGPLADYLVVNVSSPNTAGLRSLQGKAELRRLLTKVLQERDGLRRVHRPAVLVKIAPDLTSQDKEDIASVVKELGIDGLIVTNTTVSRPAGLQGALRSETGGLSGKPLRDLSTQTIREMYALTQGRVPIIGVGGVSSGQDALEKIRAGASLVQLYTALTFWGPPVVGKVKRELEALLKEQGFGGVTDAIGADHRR
Nature of the data set: Dihydro-orotate dehydrogenase inhibition assay (U937 membrane preparations, DCIP reduction). It is filed as biochemical. Particulars: U937 membrane preparation. A digest of the protocol:
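Detergent (1% octyl glucoside) extract of U937 cell membranes; dihydro-orotate-driven DCIP reduction followed as absorbance change at 600 nm after 4 h at 37° C. IC50 derived from percent inhibition of […].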

Another data set has as its system IL-17. Nature of the data set: Inhibition of IL-17 release from mouse splenocytes (PMA + ionomycin, ELISA). It is filed as cell-based, Balb/c mice. Particulars: Splenocyte, 3 h. A digest of the protocol: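 Balb/c splenocytes (1×10^6 cells/ml, RPMI) were pretreated with inhibitor for 15 min, then stimulated with 10 ng/ml PMA plus 1 μM ionomycin. Supernatant IL-17 was measured by ELISA after 3 h. IC50 was derived from percent inhibition relative to control.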
For orientation: An ELISA detects its analyte on a solid surface through an enzyme-linked reagent.

The inhibition is the share of the control response that was lost under treatment. Broadly, the IC50 is the midpoint of a concentration-inhibition curve. One may read the melting point as the temperature, or range, at which the solid turns liquid. The molecule `CCCOc1cccc(-c2cc(F)c(NC(=O)c3ccccc3C(=O)O)c(Cl)c2)c1` [Example 19, 2-(3-Chloro-5-fluoro-3′-propoxybiphenyl-4-ylcarbamoyl)benzoic acid] gave a melting point of 144 to 148 °C. For the same molecule, in data set [1], the ALT worked out at 87.9 U/L and the AST amounted to 126.5 U/L. Besides, at h-DHODH, testing at 1 µM gave an inhibition of 82.2% and 44.6 nM corresponded to half-maximal inhibition (IC50). The inhibition at 10 µM in the data set with IL-17 worked out at 19%.
Consider `CCOc1cccc(-c2ccc(NC(=O)c3ccccc3C(=O)O)cc2)c1` [Example 70, 2-(3′-ethoxybiphenyl-4-ylcarbamoyl)benzoic acid], for which, in data set [1], the ALT is on record as 84 U/L and the AST is given as 210.4 U/L. Moreover, the inhibition at 1 µM at h-DHODH is 14%. Further, in the data set on IL-17, the inhibition at 10 µM came out at 48.4% and the IC50 turned out to be 9110 nM.
For `CCCCOc1cccc(-c2cc(F)c(NC(=O)c3ccccc3C(=O)O)c(F)c2)c1` [Example 35, 2-(3′-Butoxy-3,5-difluorobiphenyl-4-ylcarbamoyl)benzoic acid], the melting point was in the range of 119.3 to 123.3 °C. Further, in data set [1], the ALT came out at 108.3 U/L and the AST worked out at 172 U/L. Moreover, at h-DHODH, testing at 1 µM gave an inhibition of 86.5% and inhibition was half-maximal at 11.9 nM (IC50). Further, in the data set with IL-17, the inhibition at 10 µM stood at 7.76%.
`O=C(O)c1ccccc1C(=O)Nc1c(Cl)cc(-c2ccccc2F)cc1Cl` [Example 24, 2-(3,5-Dichloro-2′-fluorobiphenyl-4-ylcarbamoyl)benzoic acid] showed a melting point of 185.4 to 193.6 °C. This molecule displayed an inhibition at 1 µM against h-DHODH of 40.2%. The inhibition at 10 µM in the data set with IL-17 turned out to be 8.46%.
For the molecule `CC(C)COc1cccc(-c2cc(F)c(NC(=O)c3ccccc3C(=O)O)c(F)c2)c1` [Example 34, 2-(3,5-Difluoro-3′-isobutoxybiphenyl-4-ylcarbamoyl)benzoic acid], the melting point was in the range of 112.6 to 116.4 °C. Besides, at h-DHODH, 1 µM produced 95.8% inhibition and 62.5 nM corresponded to half-maximal inhibition (IC50). Moreover, the inhibition at 10 µM with IL-17 was found to be 5.96%.
On to `O=C(O)c1ccccc1C(=O)Nc1c(F)cc(-c2ccccc2F)cc1F` [Example 32, 2-(2′,3,5-Trifluorobiphenyl-4-ylcarbamoyl)benzoic acid], for which the melting point was in the range of 152.2 to 156.3 °C. Moreover, the inhibition at 1 µM against h-DHODH was determined as 58.9%. In addition, the inhibition at 10 µM with IL-17 is 11.8%.
In turn, `O=C(O)c1ccccc1C(=O)Nc1ccc(-c2cccc(OC(F)(F)F)c2)cc1` [Example 88, 2-[3′-(trifluoromethoxy)biphenyl-4-ylcarbamoyl]benzoic acid] displayed a melting point of 154.4 to 158.5 °C. This molecule also yielded an inhibition at 0.3 µM against h-DHODH (compound tested at 0.3 uM (footnote *)) of 62.2%. In addition, the inhibition at 10 µM in the data set with IL-17 worked out at 19.1%.
`O=C(O)c1ccccc1C(=O)Nc1c(F)cc(-c2ccccc2)cc1F` [Example 10, 2-(3,5-Difluorobiphenyl-4-ylcarbamoyl)benzoic acid] gave a melting point of 161.2 to 165.7 °C. For the same molecule, at h-DHODH, the inhibition at 1 µM worked out at 46.8%. Besides, the inhibition at 10 µM in the data set with IL-17 came to 6.82%.
Take `CCOc1cccc(-c2cc(F)c(NC(=O)c3ccccc3C(=O)O)c(Cl)c2)c1` [Example 15, 2-(3-Chloro-3′-ethoxy-5-fluorobiphenyl-4-ylcarbamoyl)benzoic acid]: the melting point was 135 to 140 °C. In addition, at h-DHODH, the inhibition at 1 µM was determined as 75.5% and it took 129 nM to reach half-maximal inhibition (IC50). In the data set on IL-17, the inhibition at 10 µM is 57.5%.
As to `O=C(O)c1ccccc1C(=O)Nc1ccc(-c2cccc(OC(F)(F)F)c2)cc1F` [Example 22, 2-[3-Fluoro-3′-(trifluoromethoxy)biphenyl-4-ylcarbamoyl]benzoic acid], the melting point fell in the range of 128.3 to 132.1 °C. Further, the inhibition at 1 µM against h-DHODH was 41.8%. In addition, the inhibition at 10 µM with IL-17 worked out at 12.9%.
